Measured values published in patent US8501816B2, “Antitussive compositions comprising memantine” (Cerecor, Inc., priority 2010, dated 2013).
Marks after values point to notes of the source that are not given here.

Key:
[1] = test system: citric acid evoked coughing; experiment: Microinjection of NMDA receptor antagonists into the central termination sites of the cough receptors; type: in vivo, guinea pig; settings: anesthetized guinea pigs
[2] = test system: citric acid induced cough; experiment: Citric acid induced cough in conscious guinea pigs; settings: for Mean ± sem cumulative coughs / ≧15 Cumulative coughs/total number of guinea pigs: potentially synergistic agents; for Effect of single agent on citric acid (0.01-0.3M) induced cough: oral, 60 minutes prior, memantine 3, guaifenesin 100, diphenhydramine 10, benzonatate 30, ambroxol 100 mg/kg; for Effect on cumulative number of coughs evoked by lower concentrations of citric acid (0.01-0.1 M): 30 mg/kg; for Cumulative numbers of cough, median, citric acid 0.01M / Cumulative numbers of cough, median, citric acid 0.1M / Cumulative numbers of cough, median, citric acid 0.3M / Effect on cumulative number of coughs evoked by citric acid (0.01-0.3M) compared to controls: 30 mg/kg intraperitoneally
Description: Male Hartley guinea pigs (200-700 g) were studied and all experiments were first approved by the institutional Animal Care and Use Committee.
Animals were placed in a transparent chamber (Buxco Research Systems, Wilmington, N.C.) with a continuous flow of air and exposed to increasing concentrations of citric acid (0.01 M-0.3 M) is delivered by an ultrasonic nebulizer generating aerosol particles of 3-6 μm diameter. Coughs were counted during a 5 minute nebulization period and over the subsequent 5 minutes with the assistance of sound and pressure monitoring from the chamber. Respiratory rate and tidal volume were monitored throughout via a calibrated pressure transducer (Emka Technologies, Falls Church, Va.).
Each of these drugs was administered orally in half-log increments (e.g. 3 mg/kg, 10 mg/kg, 30 mg/kg) in an unpaired experimental design (each animal received only 1 dose of drug). The drugs were administered 60 minutes prior to citric acid challenge, which consisted of 5 minute challenges with aerosols of increasing concentrations of citric acid (0.01-0.3M), with 5 minute intervals in between escalating doses of the tussive stimulus.

cough = settings: cited from earlier work
[3] = Sedation and side effects observed in the cough studies; settings: for Sedation (FIG. 20): 30 mg/kg intraperitoneally; for Animals with mild to moderate sedation: n=8; for Sedation: 50 mg/kg, precluded assessment of cough
[4] = Respiratory parameters during cough challenge; type: in vivo, guinea pig; settings: 50 mg/kg; controls 117.7(±26.3)
Description: Using a similar chamber and nebulizer system, animals were treated first with aerosolized peptidase inhibitors (captopril 0.1 μM and thiorphan 0.1 μM, 5 minutes nebulization) to reduce bradykinin degradation and enhance tussive responses evoked by bradykinin (unpublished observations). Animals were then exposed to increasing concentrations of aerosolized bradykinin (0.1-3 mg/mL), again for 5 minute periods. Coughs are counted during this and the subsequent 5 minutes. Pressure changes within the chamber are used to monitor respiratory rate (Biopac Systems Inc, Goleta, Calif.).

[5] = test system: freezing behavior during cued fear conditioning; experiment: Cued fear conditioning in mice; type: in vivo; settings: diphenhydramine 20 mg/kg IP, p=0.061
Description: The effects of memantine on enhancing cognition were investigated with fear conditioning tests on mice. Specifically, the fear conditioning test exposed mice to a conditioned stimulus (a tone) and an unconditioned stimulus (a mild electric shock). The mice learned to associate the tone with the shock as reflected by freezing. After being adequately conditioned, the mice were administered memantine or a control (vehicle alone). […] Fear Conditioning: Fear conditioning mouse chambers (7''W×7''D×12''H; Coulbourne Instruments, […] Valley, Pa.) were housed in sound attenuating chambers. A camera was mounted on the ceiling of the chamber to capture mouse behavior (FreezeFrame software, Coulbourne Instruments, […] Valley, Pa.); data were analyzed by Freezeview software (Coulbourne Instruments, […] Valley, Pa.). Fear conditioning chambers were calibrated prior to each experiment to ensure that each chamber delivers the same shock intensity. […] Pavlovian fear conditioning refers to the learning of associations between a negative reinforcer (e.g., a mild electric foot shock/s), a novel context (e.g. a context) and/or a specific, neutral, cue (e.g., tone or white noise). To assess contextual and cued (tone) learning and memory, a standardized fear conditioning task developed for the evaluation of memory in rodents was used. Protocol: […] Cue-induced Conditioning Testing: Mice were tested for cued memory 48 hours after training. The cued conditioning test was conducted in an altered context (i.e., a different test chamber). […] Statistical Analysis: Data are represented as the mean and standard error to the mean. Data were analyzed by analysis of variance (ANOVA) followed by Fisher PLSD, or unpaired t-tests, when appropriate to test a planned comparison. An effect was considered significant if p<0.05. Statistical outliers that fell above or below two standard deviations from the mean were removed from the final analysis.

Caco-2 cells = experiment: Memantine in vitro intestinal permeability (Caco-2 cells); type: in vitro ADME; settings: FIG. 12
[6] = in vivo, po; cited from earlier work

NC(CCCP(=O)(O)O)C(=O)O (stereo not shown) [AP5]
Effect of microinjection on citric acid evoked coughing [1]: prevents citric acid evoked coughing

Nc1c(Br)cc(Br)cc1CN[C@H]1CC[C@H](O)CC1 [Ambroxol]
Mean ± sem cumulative coughs ([2]; 100 mg/kg po): 13 ± 4
≧15 Cumulative coughs/total number of guinea pigs ([2]; 100 mg/kg po): 2/6
Effect of single agent on citric acid (0.01-0.3M) induced cough [2]: failed to inhibit cough

CCCCNc1ccc(C(=O)OCCOCCOCCOCCOCCOCCOCCOCCOCCOC)cc1 [Benzonatate]
Mean ± sem cumulative coughs ([2]; 10 mg/kg po): 24 ± 4
≧15 Cumulative coughs/total number of guinea pigs ([2]; 10 mg/kg po): 3/3
Mean ± sem cumulative coughs ([2]; 30 mg/kg po): 13 ± 4
≧15 Cumulative coughs/total number of guinea pigs ([2]; 30 mg/kg po): 2/5
Effect of single agent on citric acid (0.01-0.3M) induced cough [2]: failed to inhibit cough

COc1ccc2c(c1)[C@]13CCCC[C@@H]1[C@H](C2)N(C)CC3 [Dextromethorphan]
Effect on cumulative number of coughs evoked by lower concentrations of citric acid (0.01-0.1 M) [2]: significantly reduced the cumulative number of coughs
Cumulative numbers of cough, median, citric acid 0.01M [2]: 0.0
Cumulative numbers of cough, median, citric acid 0.1M [2]: 0.5*
Cumulative numbers of cough, median, citric acid 0.3M [2]: 7.5
Effect on cumulative number of coughs evoked by citric acid (0.01-0.3M) compared to controls [2]: failed to produce a statistically significant reduction in cumulative coughs
Efficacy in cough associated with upper respiratory tract infections (cough; Bolser 2006): ineffective
Sedation (FIG. 20) [3]: moderate to severe sedation in the majority of animals studied
Animals with mild to moderate sedation ([3]; 30 mg/kg): 62.5%
Duration of sedation ([3]; 30 mg/kg, persisted throughout the citric acid challenge): > 2 h
Sedation [3]: severe sedation
mean breathing frequency [4]: 90.0(±13.7) breaths/min
Effect of microinjection on citric acid evoked coughing [1]: prevents citric acid evoked coughing

CN(C)CCOC(c1ccccc1)c1ccccc1 [Diphenhydramine]
cue-induced fear conditioning, CS phase, vs vehicle-vehicle [5]: strong trend toward decreased cue-induced fear conditioning

COc1ccccc1OCC(O)CO (stereo not shown) [Guaifenesin, 3-(2-methoxyphenoxy)-1,2-propanediol]
Mean ± sem cumulative coughs ([2]; 50 mg/kg po): 30 ± 1
≧15 Cumulative coughs/total number of guinea pigs ([2]; 50 mg/kg po): 3/3
Mean ± sem cumulative coughs ([2]; 100 mg/kg po): 20 ± 5
≧15 Cumulative coughs/total number of guinea pigs ([2]; 100 mg/kg po): 3/4
Effect of single agent on citric acid (0.01-0.3M) induced cough [2]: failed to inhibit cough

CNC1(c2ccccc2Cl)CCCCC1=O (stereo not shown) [Ketamine]
Effect on cumulative number of coughs evoked by lower concentrations of citric acid (0.01-0.1 M) [2]: not
Cumulative numbers of cough, median, citric acid 0.01M [2]: 0.0
Cumulative numbers of cough, median, citric acid 0.1M [2]: 1.5
Cumulative numbers of cough, median, citric acid 0.3M [2]: 11.0
Effect on cumulative number of coughs evoked by citric acid (0.01-0.3M) compared to controls [2]: failed to produce a statistically significant reduction in cumulative coughs
Efficacy in chronic cough patients (cough; Young et al.): ineffective
Sedation (FIG. 20) [3]: moderate to severe sedation in the majority of animals studied
Time at which sedation reversed ([3]; 30 mg/kg, during the cough challenge): 40-50 minutes post-injection
Animals with mild to moderate sedation ([3]; 30 mg/kg): 87.5%
Sedation [3]: severe sedation
mean breathing frequency [4]: 92.3(±18.8) breaths/min

CC1CCC(C(C)C)C(O)C1 (stereo not shown) [Menthol]
Mean ± sem cumulative coughs ([2]; 30 mg/kg po): 21 ± 3
≧15 Cumulative coughs/total number of guinea pigs ([2]; 30 mg/kg po): 3/3
Mean ± sem cumulative coughs ([2]; 100 mg/kg po): 11±2
≧15 Cumulative coughs/total number of guinea pigs ([2]; 100 mg/kg po): 1/7

N[C@@H](Cc1cc(CP(=O)(O)O)cc(-c2ccccc2Cl)c1)C(=O)O [SDZ220581]
Effect of microinjection on citric acid evoked coughing [1]: prevents citric acid evoked coughing

CCCCCCCC/C=C\CCCCCCCC(=O)O [oleic acid]
Effect as permeation enhancer on memantine Caco-2 permeability (Caco-2 cells): ineffective

CC(O)CO (stereo not shown) [propylene glycol]
Effect as permeation enhancer on memantine Caco-2 permeability (Caco-2 cells): ineffective

Cc1ccc(-c2nc3ccc(C)cn3c2CC(=O)N(C)C)cc1 [zolpidem]
orally bioavailable [6]: less than 70%
